We go through one compound from ChEMBL document CHEMBL3639048, “2,5-methano- and 2,5-ethano-tetrahydrobenzazepine derivatives and use thereof to block reuptake of norepinephrine, dopamine, and serotonin” (2015).

What all share (format): cell membranes
Test [1] addresses Sodium-dependent dopamine transporter (Homo sapiens, UniProt Q01959). Briefly: Radioligand Binding Assay: Compounds were dissolved in 100% DMSO at a concentration 100 times the desired highest assay concentration, serially diluted 1:3 in 100% DMSO, and 0.4 ul/well of each solution was dispensed to a Nunc polypropylene, round bottom, 384-well plate. […] 20 ul/well of a 2x membrane preparation (12.5 ug/ml in 30 mM sodium phosphate buffer, pH 7.9 at 4 C.) and 20 ul/well of a 2x radioligand solution (250 pM [125I]RTI-55 in 30 mM sodium phosphate buffer, pH 7.9 at 4 C.) were added to the well and the reaction incubated for 1 hour at room temperature. The contents of the assay plate were then transferred to a Millipore MultiscreenHTS GF/B filter plate which was pretreated with 0.5% PEI for at least one hour. The plate was vacuum-filtered and washed with 7 washes of 100 ul/well 50 mM Tris-Cl, pH 7.5, 120 mM NaCl, 5 mM KCl chilled to 4 C.

Test [2] concerns the target Sodium-dependent serotonin transporter (Homo sapiens, UniProt P31645). Put plainly: Radioligand Binding Assay: Compounds were dissolved in 100% DMSO at a concentration 100 times the desired highest assay concentration, serially diluted 1:3 in 100% DMSO, and 0.4 ul/well of each solution was dispensed to a Nunc polypropylene, round bottom, 384-well plate. […] 20 ul/well of a 2x membrane preparation (15 ug/ml in 50 mM Tris-Cl, pH 7.5, 120 mM NaCl, 5 mM KCl) and 20 ul/well of a 2x radioligand solution (520 pM [125I]RTI-55 in 50 mM Tris-Cl, pH 7.5, 120 mM NaCl, 5 mM KCl) were added to each well and the reaction incubated for 1 hour at room temperature. The contents of the assay plate were then transferred to a Millipore MultiscreenHTS GF/B filter plate which was pretreated with 0.5% PEI for at least one hour. The plate was vacuum filtered and washed with 7 washes of 100 uA/well 50 mM Tris-Cl, pH 7.5, 120 mM NaCl, 5 mM KCl chilled to 4 C.

For test [3], the target named is Sodium-dependent noradrenaline transporter (Homo sapiens, UniProt P23975). Briefly: Radioligand Binding Assay: Compounds were dissolved in 100% DMSO at a concentration 100 times the desired highest assay concentration, serially diluted 1:3 in 100% DMSO, and 1.0 ul/well of each solution was dispensed to a Nunc polypropylene, round bottom, 384-well plate. […] 50 ul/well of a 2x membrane preparation (0.4 mg/ml in 50 mM Tris-Cl, pH 7.5, 120 mM NaCl, 5 mM KCl) and 50 ul/well of a 2x radioligand solution (4 nM [3H]nisoxetine in 50 mM Tris-Cl, pH 7.5, 120 mM NaCl, 5 mM KCl) were added to the well and the reaction incubated for 1 hour at room temperature. The contents of the assay plate were then transferred to a Millipore MultiscreenHTS GF/B filter plate which was pretreated with 0.5% PEI for at least one hour. The plate was vacuum filtered and washed with 7 washes of 100 ul/well 50 mM Tris-Cl, pH 7.5, 120 mM NaCl, 5 mM KCl chilled to 4 C.
Sequence of Sodium-dependent noradrenaline transporter (P23975 whole entry): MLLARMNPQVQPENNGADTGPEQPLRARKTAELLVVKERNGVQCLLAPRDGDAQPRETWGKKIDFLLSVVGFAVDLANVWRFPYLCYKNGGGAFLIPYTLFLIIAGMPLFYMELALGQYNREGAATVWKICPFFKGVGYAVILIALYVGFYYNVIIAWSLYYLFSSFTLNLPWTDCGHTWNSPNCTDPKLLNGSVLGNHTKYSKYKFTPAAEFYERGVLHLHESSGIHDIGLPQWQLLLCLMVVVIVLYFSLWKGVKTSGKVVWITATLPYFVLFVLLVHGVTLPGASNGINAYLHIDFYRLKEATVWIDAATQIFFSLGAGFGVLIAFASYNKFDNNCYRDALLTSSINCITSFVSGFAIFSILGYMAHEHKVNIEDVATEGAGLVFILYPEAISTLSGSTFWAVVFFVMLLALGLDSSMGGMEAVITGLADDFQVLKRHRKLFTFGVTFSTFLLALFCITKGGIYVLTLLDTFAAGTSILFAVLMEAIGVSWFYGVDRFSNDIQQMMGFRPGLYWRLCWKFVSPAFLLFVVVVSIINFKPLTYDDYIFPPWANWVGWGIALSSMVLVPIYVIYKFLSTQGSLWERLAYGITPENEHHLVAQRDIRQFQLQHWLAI

Sequence of Sodium-dependent serotonin transporter (P31645 whole entry): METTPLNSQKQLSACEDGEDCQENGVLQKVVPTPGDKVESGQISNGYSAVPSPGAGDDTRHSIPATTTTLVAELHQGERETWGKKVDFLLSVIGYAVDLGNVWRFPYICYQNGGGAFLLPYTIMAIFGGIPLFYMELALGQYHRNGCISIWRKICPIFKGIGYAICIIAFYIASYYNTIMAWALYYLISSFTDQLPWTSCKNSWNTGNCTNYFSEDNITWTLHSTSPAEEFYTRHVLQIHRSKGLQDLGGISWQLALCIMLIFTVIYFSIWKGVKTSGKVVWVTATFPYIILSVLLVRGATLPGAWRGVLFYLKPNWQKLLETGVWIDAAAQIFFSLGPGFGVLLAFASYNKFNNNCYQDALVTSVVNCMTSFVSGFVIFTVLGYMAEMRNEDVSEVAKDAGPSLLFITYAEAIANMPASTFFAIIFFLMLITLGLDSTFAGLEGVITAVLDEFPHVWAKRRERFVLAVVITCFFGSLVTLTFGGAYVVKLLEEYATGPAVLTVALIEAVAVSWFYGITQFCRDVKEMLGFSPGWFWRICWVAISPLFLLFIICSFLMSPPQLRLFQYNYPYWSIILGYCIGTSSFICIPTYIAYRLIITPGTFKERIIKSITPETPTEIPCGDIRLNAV
Sequence of Sodium-dependent dopamine transporter (Q01959 whole entry): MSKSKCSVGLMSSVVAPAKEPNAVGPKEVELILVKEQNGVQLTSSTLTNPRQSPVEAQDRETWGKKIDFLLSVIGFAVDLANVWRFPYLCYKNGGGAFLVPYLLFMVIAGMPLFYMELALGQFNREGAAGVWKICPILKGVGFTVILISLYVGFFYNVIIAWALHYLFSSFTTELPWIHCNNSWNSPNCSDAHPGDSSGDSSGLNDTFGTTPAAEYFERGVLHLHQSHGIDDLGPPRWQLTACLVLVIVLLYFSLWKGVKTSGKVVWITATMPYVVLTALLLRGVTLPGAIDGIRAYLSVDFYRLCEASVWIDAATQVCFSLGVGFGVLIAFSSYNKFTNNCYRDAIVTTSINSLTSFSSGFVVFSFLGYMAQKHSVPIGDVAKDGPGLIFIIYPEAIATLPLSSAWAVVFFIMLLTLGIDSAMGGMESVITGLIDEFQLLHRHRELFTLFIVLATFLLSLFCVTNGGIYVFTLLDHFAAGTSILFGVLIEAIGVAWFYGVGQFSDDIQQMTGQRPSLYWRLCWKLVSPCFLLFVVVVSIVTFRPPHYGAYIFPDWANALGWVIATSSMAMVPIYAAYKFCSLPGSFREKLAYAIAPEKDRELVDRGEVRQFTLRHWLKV

Regarding `O=c1[nH]c2ccc(-c3ccc4c(c3)CN3CCC4(c4ccc(Cl)c(Cl)c4)CC3)cc2o1`, the IC50 in test [1] was 25.5 nM; in test [2] it was 9.3 nM; in test [3] it was 451 nM.
